How the values were obtained:
[1] = Particulate matter in water solutions of disodium clodronate and cholecalciferol with organic solvents; type: physicochemical; set-up: key: *: opalescent; **: turbid; ***: precipitate; details: disodium clodronate 100 mg/3ml, cholecalciferol 0.35mg/3ml
Experimental: (§1) In order to assess the degree of water solubilization of bisphosphonates and vitamin D by addition of variable amounts of benzyl alcohol and other water mixable organic solvents, 2 mother solutions at concentration of 100 mg disodium clodronate or 5 mg zoledronic acid in 2 ml water for injection, examples of respectively high and low dose bisphosphonates, were prepared and buffered with sodium bicarbonate to pH 6.5.
(§2) Two-ml samples of both solutions with the two bisphosphonates mentioned above were then diluted with water to approx. 3 ml (3 samples: more precisely 2997 µl, 2991µl, and 2970 µl), to 2.7 ml (1 sample) and to 2.4 ml (1 sample).A mother solution containing cholecalciferol in benzyl alcohol or other water mixable organic solvents in a ratio of 0.35 mg : 3.0 mg respectively (11.67% w/w) was also prepared and 2 series of 5 samples of 3.35 mg of it were taken and kept as such (1 sample) or diluted with 6.0 mg, 27.0 mg, 297.0 and 597.0 mg respectively of the same solvent (4 samples).The 5 cholecalciferol solution samples were then added, under slow stirring, to the 5 solution samples of each bisphosphonate in the order, so as to give mixtures with solvent concentration of 0.1, 0.3, 1.0, 10.0 and 20.0% (w/v), left to stand for 10 minutes and then examined according to the microscopic particle count test or visually (an instrumental particle counter was unnecessary).
Table Va: particulate matter in water solutions of disodium clodronate 100 mg/3ml and cholecalciferol 0.35mg / 3ml, containing different % concentrations (w/v) of organic solvents.

[2] = Particulate matter in water solutions of zoledronic acid and cholecalciferol with organic solvents; type: physicochemical; set-up: key: *: opalescent; **: turbid; ***: precipitate; details: zoledronic acid 5.0 mg/3ml, cholecalciferol 0.35 mg/3ml
Experimental: as §1, §2
Table Vb: particulate matter in water solutions of zoledronic acid 5.0 mg/3ml and cholecalciferol 0.35 mg / 3ml, containing different % concentrations (w/v) of organic solvents.

[3] = 10 % (w/v) solvent, count or visual symbol
[4] = 20 % (w/v) solvent, visual symbol
[5] = 10.0 % (w/v) solvent, count or visual symbol
[6] = 20.0 % (w/v) solvent, visual symbol

CCO [Ethanol]
Particulate matter ≥ 10µm per ml ([1]; 0.1 % (w/v) solvent): 75 per ml
Particulate matter ≥ 10µm per ml ([1]; 0.3 % (w/v) solvent): 23 per ml
Particulate matter ≥ 10µm per ml ([1]; 1.0 % (w/v) solvent): 48 per ml
Particulate matter ≥ 10µm per ml [1, 3]: **
Particulate matter ≥ 10µm per ml [1, 4]: ***
Particulate matter ≥ 10µm per ml ([2]; 0.1 % (w/v) solvent): 68 per ml
Particulate matter ≥ 10µm per ml ([2]; 0.3 % (w/v) solvent): 22 per ml
Particulate matter ≥ 10µm per ml ([2]; 1.0 % (w/v) solvent): 16 per ml
Particulate matter ≥ 10µm per ml [2, 5]: *
Particulate matter ≥ 10µm per ml [2, 6]: **

Sorbitane monoleate [Sorbitane monoleate (SPAN® 80)]
Particulate matter ≥ 10µm per ml ([1]; 0.1 % (w/v) solvent): 83 per ml
Particulate matter ≥ 10µm per ml ([1]; 0.3 % (w/v) solvent): 74 per ml
Particulate matter ≥ 10µm per ml ([1]; 1.0 % (w/v) solvent): 56 per ml
Particulate matter ≥ 10µm per ml [1, 3]: **
Particulate matter ≥ 10µm per ml [1, 4]: ***

OCc1ccccc1 [Benzyl alcohol]
Particulate matter ≥ 10µm per ml ([1]; 0.1 % (w/v) solvent): 8 per ml
Particulate matter ≥ 10µm per ml ([1]; 0.3 % (w/v) solvent): 0 per ml
Particulate matter ≥ 10µm per ml ([1]; 1.0 % (w/v) solvent): 0 per ml
Particulate matter ≥ 10µm per ml [1, 3]: 0 per ml
Particulate matter ≥ 10µm per ml [1, 4]: *
Particulate matter ≥ 10µm per ml ([2]; 0.1 % (w/v) solvent): 10 per ml
Particulate matter ≥ 10µm per ml ([2]; 0.3 % (w/v) solvent): 0 per ml
Particulate matter ≥ 10µm per ml ([2]; 1.0 % (w/v) solvent): 0 per ml
Particulate matter ≥ 10µm per ml [2, 5]: 0 per ml
Particulate matter ≥ 10µm per ml [2, 6]: *

From patent publication EP2668952A2, “Aqueous formulations of bisphosphonates, vitamin D and benzyl alcohol suitable for subcutaneous or intramuscular use” (Romano, Paolo, priority 2012, dated 2013)
